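48-hour exposure; five concentrations; linearly interpolated endpoints. TGI is the concentration that stops growth completely.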
Tests used:
Assay in all cases: NCI-60 cell line screen, 48 h
HT29 colon = test system: HT29 colon
HCT-15 colon = test system: HCT-15 colon
OVCAR-3 ovarian = test system: OVCAR-3 ovarian
SF-539 CNS = test system: SF-539 CNS
HOP-18 NSCLC = test system: HOP-18 NSCLC
SR leukemia = test system: SR leukemia
RPMI-8226 leukemia = test system: RPMI-8226 leukemia
OVCAR-4 ovarian = test system: OVCAR-4 ovarian
ACHN renal = test system: ACHN renal
M19-MEL melanoma = test system: M19-MEL melanoma
786-0 renal = test system: 786-0 renal
COLO 205 colon = test system: COLO 205 colon
U251 CNS = test system: U251 CNS
K-562 leukemia = test system: K-562 leukemia
RXF 393 renal = test system: RXF 393 renal
NCI-H460 lung = test system: NCI-H460 lung
NCI-H522 lung = test system: NCI-H522 lung
SW-620 colon = test system: SW-620 colon
HOP-92 NSCLC = test system: HOP-92 NSCLC
CCRF-CEM leukemia = test system: CCRF-CEM leukemia
SNB-75 CNS = test system: SNB-75 CNS
KM12 colon = test system: KM12 colon
SNB-78 CNS = test system: SNB-78 CNS
KM20L2 colon = test system: KM20L2 colon
NCI-H226 lung = test system: NCI-H226 lung
MOLT-4 leukemia = test system: MOLT-4 leukemia
LOX IMVI melanoma = test system: LOX IMVI melanoma
SK-MEL-2 melanoma = test system: SK-MEL-2 melanoma
SK-OV-3 ovarian = test system: SK-OV-3 ovarian
M14 melanoma = test system: M14 melanoma
SNB-19 CNS = test system: SNB-19 CNS
UO-31 renal = test system: UO-31 renal
SF-268 CNS = test system: SF-268 CNS
LXFL 529 NSCLC = test system: LXFL 529 NSCLC
HL-60(TB) leukemia = test system: HL-60(TB) leukemia
CAKI-1 renal = test system: CAKI-1 renal
SK-MEL-28 melanoma = test system: SK-MEL-28 melanoma
HOP-62 NSCLC = test system: HOP-62 NSCLC
MALME-3M melanoma = test system: MALME-3M melanoma
UACC-62 melanoma = test system: UACC-62 melanoma
A549 NSCLC = test system: A549 NSCLC
TK-10 renal = test system: TK-10 renal
SF-295 CNS = test system: SF-295 CNS
RXF-631 renal = test system: RXF-631 renal
A498 renal = test system: A498 renal
IGROV1 ovarian = test system: IGROV1 ovarian
DMS 114 small cell lung = test system: DMS 114 small cell lung
HCC-2998 colon = test system: HCC-2998 colon
HCT-116 colon = test system: HCT-116 colon
UACC-257 melanoma = test system: UACC-257 melanoma
SN12C renal = test system: SN12C renal
OVCAR-8 ovarian = test system: OVCAR-8 ovarian
SK-MEL-5 melanoma = test system: SK-MEL-5 melanoma
EKVX NSCLC = test system: EKVX NSCLC
OVCAR-5 ovarian = test system: OVCAR-5 ovarian
NCI-H23 lung = test system: NCI-H23 lung
DLD-1 colon = test system: DLD-1 colon
DMS 273 small cell lung = test system: DMS 273 small cell lung
XF 498 CNS = test system: XF 498 CNS

## O=C(N/C(=C/c1cccc([N+](=O)[O-])c1)c1nc2ccc(Cl)cc2[nH]1)c1ccccc1
HT29 colon
  TGI: 50.9 µM
HCT-15 colon
  TGI: > 100 µM
OVCAR-3 ovarian
  TGI: 76.6 µM
SF-539 CNS
  TGI: 12.5 µM
HOP-18 NSCLC
  TGI: > 100 µM
SR leukemia
  TGI: 41.3 µM
RPMI-8226 leukemia
  TGI: 69.7 µM
OVCAR-4 ovarian
  TGI: 90.5 µM
ACHN renal
  TGI: 48.9 µM
M19-MEL melanoma
  TGI: > 100 µM
786-0 renal
  TGI: > 100 µM
COLO 205 colon
  TGI: > 100 µM
U251 CNS
  TGI: 25.4 µM
K-562 leukemia
  TGI: 46.9 µM
RXF 393 renal
  TGI: 39.9 µM
NCI-H460 lung
  TGI: 51.7 µM
NCI-H522 lung
  TGI: 39.1 µM
SW-620 colon
  TGI: 22.8 µM
HOP-92 NSCLC
  TGI: 78.4 µM
CCRF-CEM leukemia
  TGI: 48 µM
SNB-75 CNS
  TGI: 68.3 µM
KM12 colon
  TGI: 31.1 µM
SNB-78 CNS
  TGI: > 100 µM
KM20L2 colon
  TGI: 45.4 µM
NCI-H226 lung
  TGI: > 100 µM
MOLT-4 leukemia
  TGI: 49 µM
LOX IMVI melanoma
  TGI: 58.3 µM
SK-MEL-2 melanoma
  TGI: 50.3 µM
SK-OV-3 ovarian
  TGI: 86.6 µM
M14 melanoma
  TGI: > 100 µM
SNB-19 CNS
  TGI: > 100 µM
UO-31 renal
  TGI: 17.2 µM
SF-268 CNS
  TGI: > 100 µM
LXFL 529 NSCLC
  TGI: > 100 µM
HL-60(TB) leukemia
  TGI: 20.2 µM
CAKI-1 renal
  TGI: 71.3 µM
SK-MEL-28 melanoma
  TGI: > 100 µM
HOP-62 NSCLC
  TGI: 62.5 µM
MALME-3M melanoma
  TGI: 36.4 µM
UACC-62 melanoma
  TGI: 33.5 µM
A549 NSCLC
  TGI: > 100 µM
TK-10 renal
  TGI: 62.1 µM
SF-295 CNS
  TGI: > 100 µM
RXF-631 renal
  TGI: 27 µM
A498 renal
  TGI: 66.2 µM
IGROV1 ovarian
  TGI: 27 µM
DMS 114 small cell lung
  TGI: 62.1 µM
HCC-2998 colon
  TGI: 70.4 µM
HCT-116 colon
  TGI: 25.8 µM
UACC-257 melanoma
  TGI: > 100 µM
SN12C renal
  TGI: 87.4 µM
OVCAR-8 ovarian
  TGI: 30.6 µM
SK-MEL-5 melanoma
  TGI: 12.7 µM
EKVX NSCLC
  TGI: 25.3 µM
OVCAR-5 ovarian
  TGI: 78.6 µM
NCI-H23 lung
  TGI: 99.5 µM

## CN1CCCN2CCN(C)CCCN(CC1)CC2
SF-539 CNS
  TGI: > 100 µM
SR leukemia
  TGI: > 100 µM
RPMI-8226 leukemia
  TGI: > 100 µM
OVCAR-4 ovarian
  TGI: > 100 µM
M19-MEL melanoma
  TGI: > 100 µM
786-0 renal
  TGI: > 100 µM
COLO 205 colon
  TGI: > 100 µM
K-562 leukemia
  TGI: > 100 µM
NCI-H460 lung
  TGI: > 100 µM
NCI-H522 lung
  TGI: > 100 µM
HOP-92 NSCLC
  TGI: > 100 µM
CCRF-CEM leukemia
  TGI: > 100 µM
SNB-75 CNS
  TGI: > 100 µM
SNB-78 CNS
  TGI: > 100 µM
NCI-H226 lung
  TGI: > 100 µM
DLD-1 colon
  TGI: > 100 µM
MOLT-4 leukemia
  TGI: > 100 µM
LOX IMVI melanoma
  TGI: > 100 µM
SK-MEL-2 melanoma
  TGI: > 100 µM
SK-OV-3 ovarian
  TGI: > 100 µM
M14 melanoma
  TGI: > 100 µM
UO-31 renal
  TGI: > 100 µM
SF-268 CNS
  TGI: > 100 µM
LXFL 529 NSCLC
  TGI: > 100 µM
HL-60(TB) leukemia
  TGI: > 100 µM
CAKI-1 renal
  TGI: > 100 µM
SK-MEL-28 melanoma
  TGI: > 100 µM
DMS 273 small cell lung
  TGI: > 100 µM
HOP-62 NSCLC
  TGI: > 100 µM
MALME-3M melanoma
  TGI: > 100 µM
UACC-62 melanoma
  TGI: > 100 µM
RXF-631 renal
  TGI: > 100 µM
A498 renal
  TGI: > 100 µM
IGROV1 ovarian
  TGI: > 100 µM
DMS 114 small cell lung
  TGI: > 100 µM
HCC-2998 colon
  TGI: > 100 µM
HCT-116 colon
  TGI: > 100 µM
SN12C renal
  TGI: > 100 µM
XF 498 CNS
  TGI: > 100 µM
NCI-H23 lung
  TGI: > 100 µM

From PubChem BioAssay (NCI)
